Measured values taken from patent US6835745B2, “Phenyl substituted thiophenes as estrogenic agents” (Wyeth, priority 2002, dated 2004).

Experiments:
human ERα = target: T1, human ERα (Homo sapiens, UniProt P03372); test: Radioligand binding competition with [3H]-17β-estradiol, ERα; conditions: human ERα ligand binding domain extract, read-out: ER-α IC50
T1 construct: amino acids M250-V595 of human ERα; His (N); Flag (C); made in house; host or cells: E. coli BL21(DE3), clarified lysate
T1 sequence (P03372 250-595): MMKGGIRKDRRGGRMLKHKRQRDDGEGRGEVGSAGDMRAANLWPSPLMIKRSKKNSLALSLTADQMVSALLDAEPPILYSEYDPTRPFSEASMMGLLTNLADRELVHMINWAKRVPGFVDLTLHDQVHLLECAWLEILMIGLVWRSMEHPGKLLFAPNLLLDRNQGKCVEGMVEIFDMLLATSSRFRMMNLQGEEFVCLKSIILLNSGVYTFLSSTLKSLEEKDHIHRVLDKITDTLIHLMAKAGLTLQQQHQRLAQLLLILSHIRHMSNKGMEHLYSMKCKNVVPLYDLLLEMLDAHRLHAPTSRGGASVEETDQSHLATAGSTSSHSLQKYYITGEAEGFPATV

human ERβ = target: T2, human ERβ (Homo sapiens, UniProt Q92731); test: Radioligand binding competition with [3H]-17β-estradiol, ERβ; conditions: human ERβ ligand binding domain extract, read-out: ER-β IC50
T2 construct: M214-Q530 of human ERβ; Flag (C); made in house; host or cells: E. coli BL21(DE3), clarified lysate
T2 sequence (Q92731 214-530): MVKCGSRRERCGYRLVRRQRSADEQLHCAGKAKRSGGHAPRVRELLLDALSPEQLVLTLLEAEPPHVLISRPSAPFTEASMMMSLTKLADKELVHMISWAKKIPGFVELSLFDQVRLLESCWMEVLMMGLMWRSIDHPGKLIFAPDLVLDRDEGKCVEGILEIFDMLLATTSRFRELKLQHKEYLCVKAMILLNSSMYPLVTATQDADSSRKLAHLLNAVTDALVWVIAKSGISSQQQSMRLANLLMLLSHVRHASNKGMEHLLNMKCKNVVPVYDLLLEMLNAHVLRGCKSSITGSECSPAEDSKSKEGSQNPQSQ

[1] = system: metallothionein-II mRNA in Saos-2 cells; test: Regulation of metallothionein II mRNA in Saos-2 cells; assay type: cell-based
Description: Estrogens acting through ERβ, but not ERα can upregulate metallothionein II mRNA levels in Saos-2 cells as described by Harris [Endocrinology 142: 645-652 (2001)]. Results from this test procedure can be combined with results from the test procedure described below (ERE reporter test procedure) to generate a selectivity profile for compounds of this invention (see also WO 00/37681).

IC50 (human ERα) [nM] | IC50 (human ERβ) [nM] | melting point [°C] | Structure (SMILES) | Fold upregulation of metallothionein-II mRNA [1]
275 | 91 | – | Cc1c(-c2ccc(O)cc2)sc(C=NO)c1-c1cccc(O)c1 (mixture of isomers) [Example 16, 3-(3-Hydroxyphenyl)-5-(4-hydroxyphenyl)-4-methylthiophene-2-carbaldehyde oxime] | –
86 | 42 | – | Cc1c(-c2ccc(O)cc2)sc(C=NO)c1-c1ccc(O)cc1 (mixture of isomers) [Example 18, 3,5-Bis(4-hydroxyphenyl)-4-methylthiophene-2-carbaldehyde oxime] | –
196 | 123 | 240 to 241 | Cc1c(-c2cccc(O)c2)sc(C=NO)c1-c1ccc(O)cc1 (mixture of isomers) [Example 21, 3-(4-Hydroxyphenyl)-5-(3-hydroxyphenyl)-4-methylthiophene-2-carbaldehyde oxime] | –
212 | 54 | 103 to 104 | Cc1c(-c2ccc(O)cc2)sc(C=O)c1-c1cccc(O)c1 [Example 1, 3-(3-Hydroxyphenyl)-5-(4-hydroxyphenyl)-4-methylthiophene-2-carbaldehyde] | –
29 | 5.5 | 244 to 247 | Cc1cc(O)ccc1-c1c(C=O)sc(-c2ccc(O)cc2)c1C [Example 3, 3-(4-Hydroxy-2-methylphenyl)-5-(4-hydroxyphenyl)-4-methyl-2-thiophenecarbaldehyde] | –
464 | 174 | – | Cc1ccc(O)cc1-c1c(C=O)sc(-c2ccc(O)cc2)c1C [Example 4, 3-(5-Hydroxy-2-methylphenyl)-5-(4-hydroxyphenyl)-4-methyl-2-thiophenecarbaldehyde] | –
35.5 | 1.8 | – | Cc1c(-c2ccc(O)cc2)sc(C=O)c1-c1ccc(O)c(F)c1 [Example 5, 3-(3-Fluoro-4-hydroxyphenyl)-5-(4-hydroxyphenyl)-4-methyl-2-thiophenecarbaldehyde] | –
515 | 71 | 228 to 230 | Cc1c(-c2ccc(O)cc2)sc(C=O)c1-c1ccc(O)c(C=O)c1 [Example 6, 3-(3-Formyl-4-hydroxyphenyl)-5-(4-hydroxyphenyl)-4-methyl-2-thiophenecarbaldehyde] | –
31 | 1.7 | – | Cc1c(-c2ccc(O)cc2)sc(C=O)c1-c1ccc(O)c(Cl)c1 [Example 7, 3-(3-Chloro-4-hydroxyphenyl)-5-(4-hydroxyphenyl)-4-methylthiophene-2-carbaldehyde] | –
93 | 5.3 | 227 to 229 | Cc1c(-c2ccc(O)c(F)c2)sc(C=O)c1-c1ccc(O)cc1 [Example 8, 5-(3-Fluoro-4-hydroxyphenyl)-3-(4-hydroxyphenyl)-4-methyl-2-thiophenecarbaldehyde] | –
85 | 12 | – | Cc1cc(O)ccc1-c1c(C=O)sc(-c2ccc(O)c(F)c2)c1C [Example 9, 5-(3-Fluoro-4-hydroxyphenyl)-3-(4-hydroxy-2-methylphenyl)-4-methylthiophene-2-carbaldehyde] | –
88 | 4 | 252 to 254 | Cc1c(-c2ccc(O)c(F)c2)sc(C=O)c1-c1ccc(O)c(Cl)c1 [Example 10, 3-(3-Chloro-4-hydroxyphenyl)-5-(3-fluoro-4-hydroxyphenyl)-4-methylthiophene-2-carbaldehyde] | –
68 | 7.8 | – | Cc1cc(O)ccc1-c1sc(C=O)c(-c2ccc(O)cc2)c1C [Example 11, 5-(4-Hydroxy-2-methylphenyl)-3-(4-hydroxyphenyl)-4-methyl-2-thiophenecarbaldehyde] | –
89 | 13 | – | Cc1cc(O)ccc1-c1sc(C=O)c(-c2ccc(O)c(F)c2)c1C [Example 12, 3-(3-Fluoro-4-hydroxyphenyl)-5-(4-hydroxy-2-methylphenyl)-4-methylthiophene-2-carbaldehyde] | –
293 | 27 | – | Cc1c(-c2ccc(O)c(Cl)c2)sc(C=O)c1-c1ccc(O)cc1 [Example 13, 5-(3-Chloro-4-hydroxyphenyl)-3-(4-hydroxyphenyl)-4-methylthiophene-2-carbaldehyde] | –
157 | 16 | 227 to 229 | Cc1c(-c2ccc(O)c(Cl)c2)sc(C=O)c1-c1ccc(O)c(F)c1 [Example 14, 5-(3-Chloro-4-hydroxyphenyl)-3-(3-fluoro-4-hydroxyphenyl)-4-methylthiophene-2-carbaldehyde] | –
31 | 2.1 | 223 to 225 | Cc1c(-c2ccc(O)cc2)sc(C=O)c1-c1ccc(O)cc1 [Example 15, 3,5-Bis(4-hydroxyphenyl)-4-methylthiophene-2-carbaldehyde] | 6.0
305 | 83 | 220 to 222 | Cc1c(-c2ccc(O)cc2)sc(C#N)c1-c1cccc(O)c1 [Example 17, 3-(3-Hydroxyphenyl)-5-(4-hydroxyphenyl)-4-methylthiophene-2-carbonitrile] | –
40 | 3.6 | – | Cc1c(-c2ccc(O)cc2)sc(C#N)c1-c1ccc(O)cc1 [Example 19, 3,5-Bis(4-hydroxyphenyl)-4-methylthiophene-2-carbonitrile] | –
152 | 28 | – | CON=Cc1sc(-c2ccc(O)cc2)c(C)c1-c1ccc(O)cc1 [Example 20, 3,5-Bis(4-hydroxyphenyl)-4-methylthiophene-2-carbaldehyde O-methyloxime] | –
299 | 73 | – | Cc1c(-c2cccc(O)c2)sc(C#N)c1-c1ccc(O)cc1 [Example 22, 3-(4-Hydroxyphenyl)-5-(3-hydroxyphenyl)-4-methylthiophene-2-carbonitrile] | –
73 | 57 | 172 to 177 | CON=Cc1sc(-c2ccc(O)cc2C)c(C)c1-c1ccc(O)c(F)c1 [Example 23, 3-(3-Fluoro-4-hydroxyphenyl)-5-(4-hydroxy-2-methylphenyl)-4-methylthiophene-2-carbaldehyde O-methyloxime] | –
